Measurements reported in ChEMBL document CHEMBL5223117, “Synthesis and biological evaluation of novel N, N'-diarylurea derivatives as potent antibacterial agents against MRSA” (Bioorg Med Chem Lett, 2022).
Values after ≈ are worked out from the molar mass of the structure shown. Active and inactive are the calls of the source. No cut-off for these calls is given here.

Key:
[1] = tested on: Staphylococcus epidermidis; assay: Antibacterial activity against methicillin sensitive Staphylococcus epidermidis ATCC 12228; type: functional
[2] = tested on: Staphylococcus epidermidis; assay: Antibacterial activity against methicillin sensitive Staphylococcus epidermidis 17-13; type: functional
[3] = tested on: Staphylococcus epidermidis; assay: Antibacterial activity against methicillin resistant Staphylococcus epidermidis 19-1; type: functional
[4] = tested on: Staphylococcus epidermidis; assay: Antibacterial activity against methicillin resistant Staphylococcus epidermidis 19-2; type: functional
Staphylococcus aureus [5] = assay: Antibacterial activity against methicillin sensitive Staphylococcus aureus ATCC 29213; type: functional
Staphylococcus aureus [6] = assay: Antibacterial activity against methicillin sensitive Staphylococcus aureus 15; type: functional
Staphylococcus aureus [7] = assay: Antibacterial activity against methicillin resistant Staphylococcus aureus 20-11; type: functional
Staphylococcus aureus [8] = assay: Antibacterial activity against methicillin resistant Staphylococcus aureus ATCC 43300; type: functional
Staphylococcus aureus [9] = assay: Antibacterial activity against vancomycin intermediate and methicillin resistant Staphylococcus aureus ATCC 700698; type: functional
Staphylococcus aureus [10] = assay: Antibacterial activity against vancomycin intermediate and methicillin resistant Staphylococcus aureus ATCC 700699; type: functional
Staphylococcus aureus [11] = assay: Antibacterial activity against methicillin sensitive Staphylococcus aureus 20-12; type: functional
Staphylococcus aureus [12] = assay: Antibacterial activity against methicillin sensitive Staphylococcus aureus ATCC 33591; type: functional
Staphylococcus aureus [13] = assay: Antibacterial activity against methicillin resistant Staphylococcus aureus 18-2; type: functional
Enterococcus faecalis [14] = assay: Antibacterial activity against Vanomycin-resistant Enterococcus faecalis ATCC 51299; type: functional
Enterococcus faecalis [15] = assay: Antibacterial activity against Vanomycin-resistant Enterococcus faecalis ATCC 51575; type: functional
Enterococcus faecium [16] = assay: Antibacterial activity against Vanomycin-resistant Enterococcus faecium ATCC 700221; type: functional
Enterococcus faecium [17] = assay: Antibacterial activity against Vanomycin-resistant Enterococcus faecium ATCC 51559; type: functional
Enterococcus faecium [18] = assay: Antibacterial activity against Vanomycin-resistant Enterococcus faecium 15-6; type: functional
[19] = Cytotoxicity against human HeLa cells by SRB assay; type: toxicity, cell-based

COc1ccc(NC(=O)Nc2ccc(Cl)c(C(F)(F)F)c2)cc1
MIC [1]: inactive | MIC [2]: inactive | MIC [3]: inactive | MIC [4]: inactive | MIC (Staphylococcus aureus [5]): inactive | MIC (Staphylococcus aureus [6]): inactive | MIC (Staphylococcus aureus [7]): inactive | MIC (Staphylococcus aureus [8]): inactive | MIC (Staphylococcus aureus [9]): inactive | MIC (Staphylococcus aureus [10]): inactive

CNC(=O)c1cc(Oc2ccc(NC(=O)Nc3ccc(Cl)c(C(F)(F)F)c3)cc2)ccn1 [SORAFENIB]
MIC [1]: 4.3 µM (≈ 2 µg/mL) | MIC [2]: 8.61 µM (≈ 4 µg/mL) | MIC [3]: 4.3 µM (≈ 2 µg/mL) | MIC [4]: 4.3 µM (≈ 2 µg/mL) | MIC (Staphylococcus aureus [5]): 8.61 µM (≈ 4 µg/mL) | MIC (Staphylococcus aureus [6]): 4.3 µM (≈ 2 µg/mL) | MIC (Staphylococcus aureus [7]): 8.61 µM (≈ 4 µg/mL) | MIC (Staphylococcus aureus [8]): 17.2 µM (≈ 8 µg/mL) | MIC (Staphylococcus aureus [9]): 17.2 µM (≈ 8 µg/mL) | MIC (Staphylococcus aureus [10]): 4.3 µM (≈ 2 µg/mL) | MIC (Staphylococcus aureus [11]): 8.61 µM (≈ 4 µg/mL) | MIC (Staphylococcus aureus [12]): 8.61 µM (≈ 4 µg/mL) | MIC (Staphylococcus aureus [13]): 17.2 µM (≈ 8 µg/mL) | MIC (Enterococcus faecalis [14]): 275 µM (≈ 128 µg/mL) | MIC (Enterococcus faecalis [15]): 275 µM (≈ 128 µg/mL) | MIC (Enterococcus faecium [16]): 275 µM (≈ 128 µg/mL) | MIC (Enterococcus faecium [17]): 275 µM (≈ 128 µg/mL) | MIC (Enterococcus faecium [18]): 275 µM (≈ 128 µg/mL) | IC50 [19]: 3.31 µM

O=C(Nc1ccc(OC(F)F)cc1)Nc1ccc(Cl)c(C(F)(F)F)c1
MIC [1]: 10.5 µM (≈ 4 µg/mL) | MIC [2]: 2.63 µM (≈ 1 µg/mL) | MIC [3]: 5.25 µM (≈ 2 µg/mL) | MIC [4]: 10.5 µM (≈ 4 µg/mL) | MIC (Staphylococcus aureus [5]): 10.5 µM (≈ 4 µg/mL) | MIC (Staphylococcus aureus [6]): 0.66 µM (≈ 0.251 µg/mL) | MIC (Staphylococcus aureus [7]): 0.66 µM (≈ 0.251 µg/mL) | MIC (Staphylococcus aureus [8]): 10.5 µM (≈ 4 µg/mL) | MIC (Staphylococcus aureus [9]): 1.31 µM (≈ 0.499 µg/mL) | MIC (Staphylococcus aureus [10]): 0.66 µM (≈ 0.251 µg/mL) | MIC (Staphylococcus aureus [11]): 10.5 µM (≈ 4 µg/mL) | MIC (Staphylococcus aureus [12]): 10.5 µM (≈ 4 µg/mL) | MIC (Staphylococcus aureus [13]): 5.25 µM (≈ 2 µg/mL) | MIC (Enterococcus faecalis [14]): inactive | MIC (Enterococcus faecalis [15]): inactive | MIC (Enterococcus faecium [16]): 21 µM (≈ 8 µg/mL) | MIC (Enterococcus faecium [17]): 21 µM (≈ 8 µg/mL) | MIC (Enterococcus faecium [18]): 21 µM (≈ 8 µg/mL)

O=C(Nc1ccc(Cl)c(F)c1)Nc1ccc(Cl)c(C(F)(F)F)c1
MIC [1]: 2.72 µM (≈ 0.999 µg/mL) | MIC [2]: 2.72 µM (≈ 0.999 µg/mL) | MIC [3]: 1.36 µM (≈ 0.499 µg/mL) | MIC [4]: 1.36 µM (≈ 0.499 µg/mL) | MIC (Staphylococcus aureus [5]): 2.72 µM (≈ 0.999 µg/mL) | MIC (Staphylococcus aureus [6]): 2.72 µM (≈ 0.999 µg/mL) | MIC (Staphylococcus aureus [7]): 2.72 µM (≈ 0.999 µg/mL) | MIC (Staphylococcus aureus [8]): 2.72 µM (≈ 0.999 µg/mL) | MIC (Staphylococcus aureus [9]): 2.72 µM (≈ 0.999 µg/mL) | MIC (Staphylococcus aureus [10]): 1.36 µM (≈ 0.499 µg/mL) | MIC (Staphylococcus aureus [11]): 2.72 µM (≈ 0.999 µg/mL) | MIC (Staphylococcus aureus [12]): 1.36 µM (≈ 0.499 µg/mL) | MIC (Staphylococcus aureus [13]): 2.72 µM (≈ 0.999 µg/mL) | MIC (Enterococcus faecalis [14]): 21.8 µM (≈ 8 µg/mL) | MIC (Enterococcus faecalis [15]): 10.9 µM (≈ 4 µg/mL) | MIC (Enterococcus faecium [16]): 5.45 µM (≈ 2 µg/mL) | MIC (Enterococcus faecium [17]): 10.9 µM (≈ 4 µg/mL) | MIC (Enterococcus faecium [18]): 10.9 µM (≈ 4 µg/mL)

CN(C(=O)Nc1cccc(Cl)c1F)c1ccc(Cl)c(C(F)(F)F)c1
MIC [1]: inactive | MIC [2]: inactive | MIC [3]: inactive | MIC [4]: inactive | MIC (Staphylococcus aureus [5]): inactive | MIC (Staphylococcus aureus [6]): inactive | MIC (Staphylococcus aureus [7]): inactive | MIC (Staphylococcus aureus [8]): inactive | MIC (Staphylococcus aureus [9]): inactive | MIC (Staphylococcus aureus [10]): inactive | MIC (Staphylococcus aureus [11]): inactive | MIC (Staphylococcus aureus [12]): inactive | MIC (Staphylococcus aureus [13]): inactive

CN(C(=O)Nc1ccc(Cl)c(C(F)(F)F)c1)c1cccc(Cl)c1F
MIC [1]: inactive | MIC [2]: inactive | MIC [3]: inactive | MIC [4]: inactive | MIC (Staphylococcus aureus [5]): inactive | MIC (Staphylococcus aureus [6]): inactive | MIC (Staphylococcus aureus [7]): inactive | MIC (Staphylococcus aureus [8]): inactive | MIC (Staphylococcus aureus [9]): inactive | MIC (Staphylococcus aureus [10]): inactive | MIC (Staphylococcus aureus [11]): inactive | MIC (Staphylococcus aureus [12]): inactive | MIC (Staphylococcus aureus [13]): inactive

C[C@H]1COc2c(N3CCN(C)CC3)c(F)cc3c(=O)c(C(=O)O)cn1c23 [LEVOFLOXACIN]
MIC [1]: 0.69 µM (≈ 0.249 µg/mL) | MIC [2]: 0.69 µM (≈ 0.249 µg/mL) | MIC [3]: 11.1 µM (≈ 4 µg/mL) | MIC [4]: 11.1 µM (≈ 4 µg/mL) | MIC (Staphylococcus aureus [5]): 0.69 µM (≈ 0.249 µg/mL) | MIC (Staphylococcus aureus [6]): 0.69 µM (≈ 0.249 µg/mL) | MIC (Staphylococcus aureus [7]): 1.38 µM (≈ 0.499 µg/mL) | MIC (Staphylococcus aureus [8]): 1.38 µM (≈ 0.499 µg/mL) | MIC (Staphylococcus aureus [9]): 22.1 µM (≈ 8 µg/mL) | MIC (Staphylococcus aureus [10]): 22.1 µM (≈ 8 µg/mL) | MIC (Staphylococcus aureus [11]): 1.38 µM (≈ 0.499 µg/mL) | MIC (Staphylococcus aureus [12]): 0.69 µM (≈ 0.249 µg/mL) | MIC (Staphylococcus aureus [13]): 177 µM (≈ 64 µg/mL) | MIC (Enterococcus faecalis [14]): 1.38 µM (≈ 0.499 µg/mL) | MIC (Enterococcus faecalis [15]): 2.77 µM (≈ 1 µg/mL) | MIC (Enterococcus faecium [16]): 177 µM (≈ 64 µg/mL) | MIC (Enterococcus faecium [17]): 88.5 µM (≈ 32 µg/mL) | MIC (Enterococcus faecium [18]): 177 µM (≈ 64 µg/mL)

O=C(Nc1ccc2c(c1)OCO2)Nc1ccc(Cl)c(C(F)(F)F)c1
MIC [1]: 22.3 µM (≈ 8 µg/mL) | MIC [2]: 22.3 µM (≈ 8 µg/mL) | MIC [3]: 22.3 µM (≈ 8 µg/mL) | MIC [4]: 22.3 µM (≈ 8 µg/mL) | MIC (Staphylococcus aureus [5]): 44.6 µM (≈ 16 µg/mL) | MIC (Staphylococcus aureus [6]): 22.3 µM (≈ 8 µg/mL) | MIC (Staphylococcus aureus [7]): 44.6 µM (≈ 16 µg/mL) | MIC (Staphylococcus aureus [8]): 357 µM (≈ 128 µg/mL) | MIC (Staphylococcus aureus [9]): 44.6 µM (≈ 16 µg/mL) | MIC (Staphylococcus aureus [10]): 22.3 µM (≈ 8 µg/mL)

CNC(=O)c1cc(Oc2ccc(NC(=O)Nc3cc(C(F)(F)F)ccc3OC)cc2)ccn1
MIC [1]: inactive | MIC [2]: inactive | MIC [3]: inactive | MIC [4]: inactive | MIC (Staphylococcus aureus [5]): inactive | MIC (Staphylococcus aureus [6]): inactive | MIC (Staphylococcus aureus [7]): inactive | MIC (Staphylococcus aureus [8]): inactive | MIC (Staphylococcus aureus [9]): inactive | MIC (Staphylococcus aureus [10]): inactive

CNC(=O)c1cc(Oc2ccc(NC(=O)Nc3cccc(C(F)(F)F)c3)cc2)ccn1
MIC [1]: 149 µM (≈ 64 µg/mL) | MIC [2]: inactive | MIC [3]: 149 µM (≈ 64 µg/mL) | MIC [4]: inactive | MIC (Staphylococcus aureus [5]): inactive | MIC (Staphylococcus aureus [6]): 149 µM (≈ 64 µg/mL) | MIC (Staphylococcus aureus [7]): inactive | MIC (Staphylococcus aureus [8]): inactive | MIC (Staphylococcus aureus [9]): inactive | MIC (Staphylococcus aureus [10]): inactive
